Measurements: article PMC4791274, “Cerdulatinib, a novel dual SYK/JAK kinase inhibitor, has broad anti-tumor activity in both ABC and GCB types of diffuse large B cell lymphoma” (Oncotarget, 2015)

Assays:
[1] = test system: p-SYK; assay: immunoblotting of p-SYK in BCR-stimulated DLBCL cell lines; format: cell-based; conditions: 3 μM, anti IgM/IgG stimulated, all five cell lines
Experimental: (§1) Immunoblotting were performed as previously described. Antibodies including total STAT3, SYK, PLCγ2, AKT, ERK1/2, PARP, caspase 3, and phosphorylated STAT3 (S727), STAT3 (Y705), SYK (Y525/526), PLCγ2 (Y759), PLCγ2 (Y1217), AKT (S473), ERK1/2 (Y204) and RB (S807/811) were purchased from Cell Signaling (Danvers, MA). Cyclin E antibody was purchased from Santa Cruz Biotechnology (Dallas, TX), and β-actin antibody was purchased from Sigma-Aldrich (St Louis, MO). Antibodies used in phosphoflow assay, including phosphorylated STAT3 (S727), SYK (Y525/526), PLCγ2 (Y759), AKT (S473), and ERK1/2 (Y204) were purchased from BD Biosciences (San Jose, CA).

[2] = test system: FLT3; conditions: biochemical assay; cited from earlier work
[3] = test system: FMS; conditions: biochemical assay; cited from earlier work
[4] = test system: GCK; conditions: biochemical assay; cited from earlier work
[5] = test system: patients with CLL and NHL; design: method as in Flinn I, et al. 2015 ASCO annual meeting Abstract #8531; conditions: oral, ref Flinn I, et al. 2015 ASCO annual meeting Abstract #8531; cited from earlier work
[6] = test system: ABC DLBCL cell lines; assay: MTT assay, ABC cell lines; format: cell-based; conditions: ABC cell lines with relatively higher total and phosphorylated STAT3, 72 h
Experimental: (§2) DLBCL cell lines were treated with various concentrations of cerdulatinib for up to 72 h. The metabolic activities of cells were determined with MTT assay according to manufacturer's instruction (Roche Applied Science, Indianapolis, IN) at 72 h time point. IC50 was calculated using the Sigma Plot generated with GraphPad Prism 6 software (GraphPad, La Jolla, CA). Cell growth was measured at every 24 h counting live cells with flow cytometry as previously described. Cells were collected every 24 h and cell viability was determined by the PE Annexin V Apoptosis Detection Kit I (BD Biosciences).

[7] = test system: LCK; conditions: cited from earlier work
[8] = test system: CHK1; conditions: biochemical assay; cited from earlier work
[9] = test system: ARK5; conditions: biochemical assay; cited from earlier work
[10] = test system: RSK2; conditions: biochemical assay; cited from earlier work
[11] = test system: LY1 (OCI-LY1) GCB DLBCL cell line; assay: MTT assay (cellular metabolic activity), 72 h; format: cell-based; conditions: Homo sapiens, OCI-Ly1, 72 h
Experimental: as §2

[12] = test system: HBL1 ABC DLBCL cell line; assay: MTT assay (cellular metabolic activity), 72 h; format: cell-based; conditions: HBL1, 72 h
Experimental: as §2

[13] = test system: U2932 ABC DLBCL cell line; assay: MTT assay (cellular metabolic activity), 72 h; format: cell-based; conditions: Homo sapiens, U2932, 72 h
Experimental: as §2

[14] = test system: LY10 (OCI-LY10) ABC DLBCL cell line; assay: MTT assay (cellular metabolic activity), 72 h; format: cell-based; conditions: LY10, 72 h
Experimental: as §2

[15] = test system: LY18 (OCI-LY18) GCB DLBCL cell line; assay: MTT assay (cellular metabolic activity), 72 h; format: cell-based; conditions: Homo sapiens, OCI-Ly18, 72 h
Experimental: as §2

[16] = test system: VAL GCB DLBCL cell line; assay: MTT assay (cellular metabolic activity), 72 h; format: cell-based
Experimental: as §2

[17] = test system: LY8 (OCI-LY8) GCB DLBCL cell line; assay: MTT assay (cellular metabolic activity), 72 h; format: cell-based; conditions: OCI-Ly8, 72 h
Experimental: as §2

[18] = test system: LY4 (OCI-LY4) GCB DLBCL cell line; assay: MTT assay (cellular metabolic activity), 72 h; format: cell-based; conditions: LY4, 72 h
Experimental: as §2

[19] = test system: SUDHL6 GCB DLBCL cell line; assay: MTT assay (cellular metabolic activity), 72 h; format: cell-based; conditions: Homo sapiens, SU-DHL-6; SUDHL6, 72 h
Experimental: as §2

[20] = test system: SUDHL2 ABC DLBCL cell line; assay: MTT assay (cellular metabolic activity), 72 h; format: cell-based; conditions: Homo sapiens, SU-DHL-2; SUDHL2, 72 h
Experimental: as §2

[21] = test system: LY3 (OCI-LY3) ABC DLBCL cell line; assay: MTT assay (cellular metabolic activity), 72 h; format: cell-based; conditions: Homo sapiens, OCI-Ly3, 72 h
Experimental: as §2

[22] = test system: TSSK; conditions: biochemical assay; cited from earlier work
[23] = test system: LY18 cells; assay: PARP and caspase 3 cleavage, Western blotting; format: cell-based; conditions: LY18, 48 h
Experimental: as §1

[24] = test system: FLT4; conditions: biochemical assay; cited from earlier work
[25] = test system: ZAP70; conditions: cited from earlier work
[26] = test system: BCR-stimulated DLBCL cells; assay: annexin V / 7-AAD viability under BCR stimulation; format: cell-based; conditions: 3 μM, 48 h, anti-IgM and anti-IgG stimulation, all cell lines tested
Experimental: as §2

[27] = test system: 24 kinases; conditions: biochemical assays, Table 1; read-out: IC50's against 24 kinases; cited from earlier work
[28] = test system: RET; conditions: biochemical assay; cited from earlier work
[29] = test system: RSK4; conditions: biochemical assay; cited from earlier work

What does the source list for CCS(=O)(=O)N1CCN(c2ccc(Nc3ncc(C(N)=O)c(NC4CC4)n3)cc2)CC1 [cerdulatinib]?
p-SYK level [1]: significant reduction; IC50 [2]: 90 nM; IC50 [3]: 5 nM; IC50 [4]: 18 nM; target tumor reductions [5]: greater than 50%; IC50 [6]: 290 to 1800 nM; cellular activity against LCK [7]: lacking cellular activity; IC50 [8]: 42 nM; IC50 [9]: 4 nM; IC50 [10]: 20 nM; IC50 [11]: 270 nM; IC50 [12]: 540 nM; IC50 [13]: 1800 nM; IC50 [14]: 290 nM; IC50 [15]: 160 nM; IC50 [16]: 130 nM; IC50 [17]: 50 nM; IC50 [18]: 2100 nM; IC50 [19]: 100 nM; IC50 [20]: 980 nM; IC50 [21]: 1660 nM; IC50 [22]: 14 nM; PARP and caspase 3 cleavage [23]: little changes; IC50 [24]: 51 nM; cellular activity against ZAP70 [25]: lacking cellular activity; viability of stimulated DLBCL cells [26]: reduced; IC50 [27]: < 200 nM; IC50 [28]: 105 nM; IC50 [29]: 28 nM
